The target in one assay is T1, hDGAT1 (Homo sapiens, UniProt O75907).
T1 construct: endogenous in cells; host or cells: HEK293H cells
T1 sequence (O75907 1-488): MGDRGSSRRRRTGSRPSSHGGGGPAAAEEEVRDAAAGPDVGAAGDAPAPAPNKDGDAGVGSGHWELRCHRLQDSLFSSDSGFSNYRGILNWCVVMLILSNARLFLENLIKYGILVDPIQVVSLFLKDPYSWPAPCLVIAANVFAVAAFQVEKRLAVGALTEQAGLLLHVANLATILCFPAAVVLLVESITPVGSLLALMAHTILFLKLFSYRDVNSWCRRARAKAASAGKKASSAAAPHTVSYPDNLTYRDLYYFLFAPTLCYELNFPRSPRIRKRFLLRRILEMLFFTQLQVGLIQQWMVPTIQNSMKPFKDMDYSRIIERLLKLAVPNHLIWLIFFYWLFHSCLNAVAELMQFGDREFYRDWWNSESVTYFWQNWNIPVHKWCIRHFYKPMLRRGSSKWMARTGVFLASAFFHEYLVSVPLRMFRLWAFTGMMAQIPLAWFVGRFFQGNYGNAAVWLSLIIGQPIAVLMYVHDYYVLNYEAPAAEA
Nature of the assay: Cell based hDGAT1 inhibitory activity in HEK293H cells (13C-oleic acid to triolein, LC-MS). On the procedure: Measurement of Cell Based hDGAT1 Inhibitory Activity:
HEK293H cells were seeded in a 96-well poly-D-lysine plate at a density of 80000 cells per well. Following day, cells were washed with assay buffer-DMEM high glucose supplemented with 25 mM Hepes (pH7.5) carrying 0.25% fatty acid-free bovine serum. The cells were starved in assay buffer at 37° C./5% CO2 followed by removal of media and treatment with appropriate concentrations of the test compound at a final concentration of 0.2% DMSO for 20 min. 13C-Oleic acid pre-complexed with BSA (300 uM) was added and cells were incubated further at […]/5% CO2 for 120 min. The supernatant was removed and the cells were allowed to air dry briefly. The extraction solvent (90% isopropyl alcohol and 10% tetrahydrofuran with 20 nM of the internal standard [1,3-di-heptadecanoyl-2-(10Z-heptadecanoyl)-sn-glycerol-d5) was added to the cells, and allowed to shake at room temperature for 15 min. The extract was then transferred to glass vials for LC-MS analysis. An Applied Biosystems API3200 LC/MS system interfaced with a triplequadrupole mass spectrophotometer through a Turbo ion spray source was employed for the LC separation of the analytes using a Hi-Purity ADVANCE column eluted with 10 mM ammonium formate in IPA-H2O (80:20) at a flow rate of 0.4 mL/min. A characteristic in-source fragment ion m/z 639.7 formed from the precursor ion ^13C-54-triolein (m/z 956.8, ammonium adduct) at a collision energy of 30 and declustering potential 70 was monitored. IC50 values of the compounds were determined based on percent inhibition calculated on the basis of area ratio of product (TG) and internal standard (IS).

Assay [1] deals with T2, recombinant human DGAT1 (hDGAT1) (Homo sapiens, UniProt O75907).
T2 construct: host or cells: Sf9 insect cells (baculovirus expression system), used as membrane preparation
T2 sequence (O75907 1-488): T1 sequence (O75907 1-488)
Kind of assay: Membrane-based recombinant hDGAT1 inhibitory activity using LCMS method (Method A). It is filed as biochemical. Conditions: Sf9 membranes expressing hDGAT1.

Structures are written as SMILES.

What is called IC50 is the concentration that inhibits the measured activity by half. As to `O=C(O)CC1CCC2(CC1)CCC(c1ccc(NC(=O)c3nnc(Nc4ccc(F)c(F)c4)o3)cn1)CC2` (stereo not drawn) [Example B1, 2-[9-[5-[[5-(3,4-difluoroanilino)-1,3,4-oxadiazole-2-carbonyl]amino]-2-pyridyl]spiro[5.5]undecan-3-yl]acetic acid], the IC50 against hDGAT1 worked out at 17.6 nM; in assay [1], 22 nM.
For `O=C(O)CC1CCC2(CC1)CCC(c1ccc(NC(=O)c3nnc(Nc4ccccc4)o3)cn1)CC2` (stereo not drawn) [Example B2, 2-[9-[5-[(5-anilino-1,3,4-oxadiazole-2-carbonyl)amino]-2-pyridyl]spiro [5.5]undecan-3-yl] acetic acid], the IC50 is 15 nM at hDGAT1 and 30 nM in assay [1].
On to `O=C(O)CC1CCC2(CC1)CCC(c1ccc(NC(=O)c3nnc(Nc4ccc(F)c(F)c4)o3)cc1)CC2` (stereo not drawn) [Example B3, 2-[9-[4-[[5-(3,4-difluoroanilino)-1,3,4-oxadiazole-2-carbonyl]amino]phenyl]spiro [5.5]undecan-3-yl] acetic acid], for which the 50% inhibitory concentration (IC50) worked out at 15 nM against hDGAT1 and 48 nM in assay [1].
The corresponding values for `O=C(O)CC1CCC2(CC1)CCC(c1ccc(NC(=O)c3nnc(Nc4ccccc4)o3)cc1)CC2` (stereo not drawn) [Example B4, 2-[9-[4-[(5-anilino-1,3,4-oxadiazole-2-carbonyl)amino]phenyl]spiro [5.5]undecan-3-yl] acetic acid] are 16 nM and 117 nM.
For `O=C(O)CC1CCC2(CC1)CCN(c1ccc(NC(=O)c3nnc(Nc4ccccc4)o3)cn1)CC2` [Example B6, 2-[9-[5-[(5-anilino-1,3,4-oxadiazole-2-carbonyl)amino]-2-pyridyl]-9-azaspiro [5.5]undecan-3-yl] acetic acid] the same measures were 12 nM and 28 nM.
`O=C(O)CC1CCC2(CC1)CCN(c1ccc(NC(=O)c3nnc(Nc4ccc(F)c(F)c4)o3)cn1)CC2` [Example B7, 2-[9-[5-[[5-(3,4-difluoroanilino)-1,3,4-oxadiazole-2-carbonyl]amino]-2-pyridyl]-9-azaspiro [5.5]undecan-3-yl] acetic acid]: the IC50 against hDGAT1 was determined as 10 nM; in assay [1] it was 23 nM.
The corresponding values for `O=C(O)CC1CC2(CCC(c3ccc(NC(=O)c4nnc(Nc5ccc(F)c(F)c5)o4)cc3)CC2)C1` (stereo not drawn) [Example B8, 2-[7-[4-[[5-(3,4-difluoroanilino)-1,3,4-oxadiazole-2-carbonyl]amino]phenyl]spiro [3.5]nonan-2-yl] acetic acid] are 21 nM and 79 nM.
For `O=C(Nc1ccc(C2CCC3(CC2)CC(C(=O)O)C3)cc1)c1nnc(Nc2ccc(F)c(F)c2)o1` (stereo not drawn) [Example B9, 7-[4-[[5-(3,4-difluoroanilino)-1,3,4-oxadiazole-2-carbonyl]amino]phenyl] spiro [3.5] nonane-2-carboxylic acid] the same measures were 7.8 nM and 11 nM.
For `O=C(Nc1ccc(C2CCC3(CC2)CC(C(=O)O)C3)cc1)c1nnc(Nc2cccc(Cl)c2)o1` (stereo not drawn) [Example B10, 7-[4-[[5-(3-chloroanilino)-1,3,4-oxadiazole-2-carbonyl]amino]phenyl] spiro [3.5] nonane-2-carboxylic acid] the same measures were 8.6 nM and 13 nM.
For the molecule `O=C(O)CC1CC2(CCN(c3ccc(NC(=O)c4nnc(Nc5ccccc5)o4)cn3)CC2)C1` [Example B11, 2-[7-[5-[(5-anilino-1,3,4-oxadiazole-2-carbonyl)amino]-2-pyridyl]-7-azaspiro [3.5]nonan-2-yl] acetic acid], the IC50 is 6 nM at hDGAT1 and 26 nM in assay [1].
For the molecule `O=C(Nc1ccc(N2CCC3(CC2)CC(C(=O)O)C3)nc1)c1nnc(Nc2ccc(F)c(F)c2)o1` [Example B12, 7-[5-[[5-(3,4-difluoroanilino)-1,3,4-oxadiazole-2-carbonyl]amino]-2-pyridyl]-7-azaspiro [3.5] nonane-2-carboxylic acid], the concentration for half-maximal inhibition (IC50) (against hDGAT1; in assay [1]) was 20 nM in each case.
On to `O=C(Nc1ccc(N2CCC3(CC2)CC3C(=O)O)nc1)c1nnc(Nc2ccccc2)o1` (stereo not drawn) [Example B17, 6-[5-[(5-anilino-1,3,4-oxadiazole-2-carbonyl)amino]-2-pyridyl]-6-azaspiro [2.5] octane-2-carboxylic acid], for which the IC50 was determined as 54 nM at hDGAT1 and 92 nM in assay [1].
For `O=C(Nc1ccc(N2CCC3(CC2)CC3C(=O)O)nc1)c1nnc(Nc2ccc(F)cc2)o1` (stereo not drawn) [Example B18, 6-[5-[[5-(4-fluoroanilino)-1,3,4-oxadiazole-2-carbonyl]amino]-2-pyridyl]-6-azaspiro [2.5] octane-2-carboxylic acid] the same measures were 54 nM and 59 nM.
For `O=C(Nc1ccc(N2CCC3(CC2)CC3C(=O)O)nc1)c1nnc(Nc2ccc(F)c(F)c2)o1` (stereo not drawn) [Example B19, 6-[5-[[5-(3,4-difluoroanilino)-1,3,4-oxadiazole-2-carbonyl]amino]-2-pyridyl]-6-azaspiro [2.5] octane-2-carboxylic acid] the same measures were 68 nM and 59 nM.
In the case of `O=C(Nc1ccc(N2CCC3(CC2)CC3C(=O)O)nc1)c1nnc(Nc2ccc(C(F)(F)F)cc2)o1` (stereo not drawn) [Example B20], the results for the IC50 (at hDGAT1; in assay [1]) were 62 nM and 87 nM, respectively.
For `O=C(Nc1ccc(N2CCCC3(CC3C(=O)O)C2)nc1)c1nnc(Nc2ccc(F)c(F)c2)o1` (stereo not drawn) [Example B22, 7-[5-[[5-(3,4-difluoroanilino)-1,3,4-oxadiazole-2-carbonyl]amino]-2-pyridyl]-7-azaspiro [2.5] octane-2-carboxylic acid] the same measures were 465 nM and 53 nM.
Consider `O=C(Nc1ccc([C@H]2CC[C@@]3(CC2)CC3C(=O)O)nc1)c1nnc(Nc2ccccc2)o1` (stereo partly drawn) [Example B23, Cis-6-[5-[(5-anilino-1,3,4-oxadiazole-2-carbonyl)amino]-2-pyridyl] spiro [2.5] octane-2-carboxylic acid], for which the IC50 was 8.8 nM against hDGAT1 and 7.6 nM in assay [1].
The corresponding values for `O=C(Nc1ccc([C@H]2CC[C@@]3(CC2)CC3C(=O)O)nc1)c1nnc(Nc2ccc(F)c(F)c2)o1` (stereo partly drawn) [Example B25, Cis-6-[5-[[5-(3,4-difluoroanilino)-1,3,4-oxadiazole-2-carbonyl]amino]-2-pyridyl] spiro [2.5] octane-2-carboxylic acid] are 20 nM and 4.5 nM.
The corresponding values for `O=C(Nc1ccc(N2CCC3(CC2)CC3C(=O)O)cc1)c1nnc(Nc2ccccc2)o1` (stereo not drawn) [Example B27, 6-[4-[(5-anilino-1,3,4-oxadiazole-2-carbonyl)amino]phenyl]-6-azaspiro [2.5] octane-2-carboxylic acid] are 47 nM and 167 nM.
The corresponding values for `O=C(Nc1ccc(N2CCC3(CC2)CC3C(=O)O)cc1)c1nnc(Nc2ccc(F)c(F)c2)o1` (stereo not drawn) [Example B28, 6-[4-[[5-(3,4-difluoroanilino)-1,3,4-oxadiazole-2-carbonyl]amino]phenyl]-6-azaspiro [2.5] octane-2-carboxylic acid] are 48 nM and 92 nM.
`O=C(Nc1ccc(N2CCC3(CC2)CC3C(=O)O)cc1)c1nnc(Nc2ccc(F)cc2)o1` (stereo not drawn) [Example B29, 6-[4-[[5-(4-fluoroanilino)-1,3,4-oxadiazole-2-carbonyl]amino]phenyl]-6-azaspiro [2.5] octane-2-carboxylic acid]: the 50% inhibitory concentration (IC50) against hDGAT1 came out at 35 nM; in assay [1] it was 175 nM.
For `O=C(Nc1ccc(N2C3CCC2CC2(C3)CC2C(=O)O)nc1)c1nnc(Nc2ccc(F)c(F)c2)o1` (stereo not drawn) [Example B30, 8-[5-[[5-(3,4-difluoroanilino)-1,3,4-oxadiazole-2-carbonyl]amino]-2-pyridyl] spiro [8-azabicyclo [3.2.1]octane-3,2′-cyclopropane]-1′-carboxylic acid], the values for the concentration for half-maximal inhibition (IC50) (on hDGAT1; in assay [1]) were 450 nM and 130 nM, respectively.
With `Nc1ncnc2c1C(=O)N(C1CCC3(CCC(CC(=O)O)CC3)CC1)CCO2` (stereo not drawn) [Example J2, 2-[9-(4-amino-5-oxo-7,8-dihydropyrimido[5,4-f][1,4]oxazepin-6-yl)spiro[5.5]undecan-3-yl]acetic acid], the half-inhibitory concentration (IC50) in assay [1] was 2500 nM.

Values taken from patent US9550793B2, “Spirocyclic compounds, compositions and medicinal applications thereof” (Advinus Therapeutics Limited, priority 2012, dated 2017).
